Experiments:
proMMP9 = target: T1, proMMP9 (Homo sapiens, UniProt P14780); experiment: Activation of proMMP9 by human fetal lung fibroblast (HFL-1) cultures (Western blot); type: cell-based; settings: 3.3 μM, 30 nM elastase, 72 hrs, mAb-L51/82
T1 construct: endogenous in cells; host or cells: HFL-1 (ATCC CCL-153), TNFα-stimulated, with 30 nM human neutrophil elastase added
Description: Example 2 was assessed additionally for ability to block the maturation of proMMP9 to active MMP9 in cultures of human fetal lung fibroblasts (HFL-1, American Type Culture Collection #CCL-153). Unlike rat synoviocytes, HFL-1 cells were unable to process proMMP9 to the active form without addition of neutrophil elastase. […] Rather, the function of elastase in this assay may be to inactivate tissue inhibitors of matrix metalloproteinases (TIMPs) that repress endogenous pathways of MMP9 activation (Skold, Liu et al. 1999).
HLF-1 were maintained in monolayer culture in DMEM with 10% FCS and were used between passage numbers 5-15. HLF-1 were embedded in collagen gels as described for rat SCW synoviocytes (vida supra). Half mL gels containing 0.4 million cells were dislodged into wells of 12 well Costar plates containing 1 mL/well of DMEM adjusted to contain 0.05% BSA and 100 ng/mL human TNFα (R&D Systems Cat #210-TA/CF). After overnight culture (37° C. and 5% CO2) wells were adjusted to contain an additional 0.5 mL of DMEM containing 0.05% BSA and with or without 13.2 μM Example 2 (final concentration was 3.3 μM Example 2). Next, cultures were adjusted to contain 30 nM human elastase (Innovative Research). The plates were cultured an additional 72 hrs, at which time MMP9 secreted into the conditioned media was bound to gelatin-sepharose and evaluated by Western blot analysis as described for the rat synoviocyte cultures (vida supra). mAb-51/82 detected three forms of MMP9 in HFL-1 cultures.
A second experiment was performed to determine if the 80 kD form was mature active MMP9 and to determine the potency of Example 2 as an inhibitor of MMP9 maturation in this assay. HFL-1 cells embedded in collagen gels were cultured as described above in the presence of TNFα overnight and the cultures were then adjusted to contain 30 nM elastase and graded concentrations of Example 2 for an additional 72 hrs at which time MMP9 secreted into the conditioned media was bound to gelatin-sepharose and evaluated by Western blot analysis for active MMP9 using pAb-1246 raised against the N-terminal neoepitope of active MMP9 (Table 5). In the absence of Example 2, pAb-1246 readily detected MMP9 with an electrophoretic mobility of approximately 80 kD. […] Inhibition occurred over a dose range with an IC50 of approximately 0.3 μM Example 2.

[1] = test system: rats with SCW-induced arthritis; experiment: Efficacy in rats with SCW-induced arthritis (ankle thickness, clinical scores); type: in vivo, rat; settings: 5, 20, 50 mg/kg BID oral, Day 18-26
Description: SCW PG-PS 10S (Beckton Dickinson Cat#210866) suspended in saline was vortexed for 30 seconds and sonicated for 3 min with a probe type sonicator prior to injection. Female Lewis (LEW/N) rats, 5-6 weeks of age (80-100 g) were injected (i.p.) with SCW PG-PS (15 μg of rhamnose/gram BW) in the lower left quadrant of the abdomen using a 1 mL syringe fitted with a 23-gauge needle. Control (disease-free) rats were treated in a similar manner with sterile saline. Control rats were sacrificed on day 5 and groups of SCW-injected rats were sacrificed on day 5 when acute inflammation was maximal or on day 18 when chronic inflammation was established.
To induce arthritis, Female Lewis (LEW/N) rats, 5-6 weeks of age (80-100 g) were injected (i.p.) with SCW PG-PS as described above. Eighteen days later, arthritis was well established. Calipers were used to measure the width (anterior to posterior surface) of the left and right hind ankles of each rat. Each ankle was measured 3 times and averaged, and treatment groups were randomized based on ankle thickness (Table 6). Commencing on day 18, randomized groups of arthritic rats (n=5 rats/group) received vehicle or 5, 20, or 50 mg/kg Example 2 BID by oral gavage. Vehicle consisted of an aqueous mixture containing 2% (v:v) N-methylpyrrolidone, 5% (v:v) glycerine, and 20% (w:v) captisol. Treatment continued daily through the morning of day 26. […]

T1 sequence (P14780 20-707 limits assumed): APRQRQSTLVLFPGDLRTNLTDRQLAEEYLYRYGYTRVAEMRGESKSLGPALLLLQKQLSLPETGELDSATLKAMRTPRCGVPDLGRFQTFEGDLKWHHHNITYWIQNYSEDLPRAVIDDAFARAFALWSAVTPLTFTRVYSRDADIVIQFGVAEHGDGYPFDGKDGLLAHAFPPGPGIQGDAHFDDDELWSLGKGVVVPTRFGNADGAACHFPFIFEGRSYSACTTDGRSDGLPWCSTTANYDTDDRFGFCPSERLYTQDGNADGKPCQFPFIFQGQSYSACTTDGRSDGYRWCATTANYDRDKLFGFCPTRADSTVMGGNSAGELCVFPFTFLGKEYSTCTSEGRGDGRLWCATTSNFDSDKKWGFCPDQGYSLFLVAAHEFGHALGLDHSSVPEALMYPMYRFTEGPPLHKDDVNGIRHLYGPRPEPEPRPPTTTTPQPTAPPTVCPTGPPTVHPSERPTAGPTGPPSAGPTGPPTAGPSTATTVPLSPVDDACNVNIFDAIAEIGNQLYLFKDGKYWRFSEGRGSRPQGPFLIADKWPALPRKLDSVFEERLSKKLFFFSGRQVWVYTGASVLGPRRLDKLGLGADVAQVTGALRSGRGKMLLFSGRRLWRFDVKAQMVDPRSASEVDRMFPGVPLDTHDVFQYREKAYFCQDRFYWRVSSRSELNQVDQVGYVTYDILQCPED

Percent of total signal 80 kD (proMMP9): 7%
Percent of total signal 86 kD (proMMP9): 47%
Percent of total signal 100 kD (proMMP9): 46%
Signal Total (proMMP9): 91346 INT * mm^2
Structure (SMILES): Cc1nc(C)c(-c2csc(Nc3cc(S(N)(=O)=O)ccc3OC(C)C)n2)s1 [Example 2, 3-(2′,4′-Dimethyl-[4,5′]bithiazolyl-2-ylamino)-4-isopropoxy-benzenesulfonamide.HBr]
Effect on ankle thickness measurements [1]: dose-dependent decrease
Effect on clinical score measurements [1]: dose dependent decrease
